Experimental data from US8685997B2, “Camptothecin derivatives and their use” (Shanghai Institute of Materia Medica, Chinese Academy of …, priority 2006, dated 2014).
Read-outs that look alike come from different tables or passages of the source. Blank lines part the entries; values can stand above or below the compound they belong to.

Legend:
HCT-116 = assay: SRB protein staining tumor cell proliferation assay; assay type: cell-based, human; details: read-out: IC50(mean ± SD)
Source text: (§1) 1. Sulfonyl rhodamine B (SRB) protein staining assays were used to detect the inhibition of tumor cell proliferation of the compound.

HL-60 = assay: as above; assay type: cell-based; details: read-out: IC50(mean ± SD)
Source text: as §1

SMMC-7721 = assay: as above; assay type: cell-based; details: read-out: IC50(mean ± SD)
Source text: as §1

MDA-MB-468 = assay: as above; assay type: cell-based; details: read-out: IC50(mean ± SD)
Source text: as §1

MKN-28 = assay: as above; assay type: cell-based; details: read-out: IC50(mean ± SD)
Source text: as §1

SGC-7901 = assay: as above; assay type: cell-based; details: read-out: IC50(mean ± SD)
Source text: as §1

HCT-15 = assay: as above; assay type: cell-based; details: read-out: IC50(mean ± SD)
Source text: as §1

HO-8910 = assay: as above; assay type: cell-based; details: read-out: IC50(mean ± SD)
Source text: as §1

BEL-7402 = assay: as above; assay type: cell-based; details: read-out: IC50(mean ± SD)
Source text: as §1

MCF-7 = assay: as above; assay type: cell-based
Source text: as §1

NCI-H23 = assay: as above; assay type: cell-based; details: read-out: IC50(mean ± SD)
Source text: as §1

MDA-MB-435 = assay: as above; assay type: cell-based; details: read-out: IC50(mean ± SD)
Source text: as §1

A549 = assay: as above; assay type: cell-based; details: read-out: IC50(mean ± SD)
Source text: as §1

[1] = test system: thirteen tumor cell lines; assay: SRB proliferation assay, panel of thirteen tumor cell lines; assay type: cell-based; details: mean over thirteen tumor cell lines
Source text: as §1

[2] = test system: human lung cancer SPC-A4 xenografts; assay: Human lung cancer SPC-A4 xenografts in nude mice; details: for Body weight (g) At the beginning / Body weight (g) At the end / RTV / T/C (%) / TV (mm^3) d0 / TV (mm^3) d20: q3w × 3, i.v.
[3] = test system: human rectal cancer HCT-116 xenografts; assay: Human rectal cancer HCT-116 xenografts in nude mice; details: for Body weight (g) At the beginning / Body weight (g) At the end / RTV / T/C (%) / TV (mm^3) d0 / TV (mm^3) d21: q3w × 3, i.v.
K562 cell line = assay: Anti-multidrug resistance evaluation, parent cell line; assay type: cell-based; details: Homo sapiens; K562 cells
Source text: (§2) 2. The multidrug resistance cell line K562/A02 and its parent K562 cell line were used to evaluate the anti-multidrug resistance of the CPT-4 active metabolite.

[4] = test system: multidrug resistance cell line K562/A02; assay: Anti-multidrug resistance evaluation, multidrug resistance cell line; assay type: cell-based
Source text: as §2

[5] = intravenously, three times per week

Compound: CC[C@@]1(O)C(=O)OCc2c1cc1n(c2=O)Cc2cc3c([N+](=O)[O-])cccc3nc2-1 [9NC, 9-nitrocamptothecin]
- IC50 (HCT-116): 13.7 ± 1.4 nM
- IC50 (HL-60): 20.6 ± 2.56 nM
- IC50 (SMMC-7721): 1380 ± 25 nM
- IC50 (MDA-MB-468): 64.9 ± 29.6 nM
- IC50 (MKN-28): 116 ± 6.48 nM
- IC50 (SGC-7901): 98 ± 6.87 nM
- IC50 (HCT-15): 9.59 ± 0.48 nM
- IC50 (HO-8910): 227 ± 40.8 nM
- IC50 (BEL-7402; BEL-7402): 58.8 ± 10.7 nM
- IC50 (MCF-7; read-out: IC50(mean ± SD)): 62.6 ± 19.8 nM
- IC50 (NCI-H23): 70.3 ± 14.6 nM
- IC50 (MDA-MB-435): 18.5 ± 6.14 nM
- IC50 (A549): 31.9 ± 3.72 nM
- IC50 [1]: 167 nM

Compound: C=CCc1c(OC(=O)N2CCC(N3CCCCC3)CC2)ccc2nc3c(cc12)Cn1c-3cc2c(c1=O)COC(=O)[C@]2(O)CC [CPT-4, 10-((4′-piperidylpiperidine)carbonyloxy)-9-allylcamptothecin]
- Body weight (g) At the beginning ([2]; 3.75 mg/kg): 17.8 g
- Body weight (g) At the end ([2]; 3.75 mg/kg): 19.3 g
- RTV ([2]; 3.75 mg/kg): 19 ± 5.5
- T/C (%) ([2]; 3.75 mg/kg): 41.4%
- TV (mm^3) d0 ([2]; 3.75 mg/kg): 104 ± 22 mm^3
- TV (mm^3) d20 ([2]; 3.75 mg/kg): 1931 ± 533 mm^3
- Body weight (g) At the beginning ([2]; 7.5 mg/kg): 17.5 g
- Body weight (g) At the end ([2]; 7.5 mg/kg): 19.3 g
- RTV ([2]; 7.5 mg/kg): 14 ± 5.5
- T/C (%) ([2]; 7.5 mg/kg): 31.4%
- TV (mm^3) d0 ([2]; 7.5 mg/kg): 108 ± 61 mm^3
- TV (mm^3) d20 ([2]; 7.5 mg/kg): 1153 ± 172 mm^3
- Body weight (g) At the beginning ([2]; 15 mg/kg): 17.3 g
- Body weight (g) At the end ([2]; 15 mg/kg): 17.5 g
- RTV ([2]; 15 mg/kg): 0.4 ± 0.7
- T/C (%) ([2]; 15 mg/kg): 0.88%
- TV (mm^3) d0 ([2]; 15 mg/kg): 106 ± 28 mm^3
- TV (mm^3) d20 ([2]; 15 mg/kg): 55 ± 99 mm^3
- inhibition of growth of tumor xenografts [2, 5]: can significantly inhibit the growth of tumor xenografts
- xenograft growth inhibition compared with CPT-11 [2, 5]: equivalent to that of CPT-11
- Body weight (g) At the beginning ([3]; 3.75 mg/kg): 20.2 g
- Body weight (g) At the end ([3]; 3.75 mg/kg): 17.0 g
- RTV ([3]; 3.75 mg/kg): 8.4 ± 2.0
- T/C (%) ([3]; 3.75 mg/kg): 18.9%
- TV (mm^3) d0 ([3]; 3.75 mg/kg): 92 ± 27 mm^3
- TV (mm^3) d21 ([3]; 3.75 mg/kg): 720 ± 75 mm^3
- Body weight (g) At the beginning ([3]; 7.5 mg/kg): 19.5 g
- Body weight (g) At the end ([3]; 7.5 mg/kg): 17.2 g
- RTV ([3]; 7.5 mg/kg): 3.8 ± 2.2
- T/C (%) ([3]; 7.5 mg/kg): 8.31%
- TV (mm^3) d0 ([3]; 7.5 mg/kg): 94 ± 30 mm^3
- TV (mm^3) d21 ([3]; 7.5 mg/kg): 289 ± 108 mm^3
- Body weight (g) At the beginning ([3]; 15 mg/kg): 20.3 g
- Body weight (g) At the end ([3]; 15 mg/kg): 17.8 g
- RTV ([3]; 15 mg/kg): 1.8 ± 0.5
- T/C (%) ([3]; 15 mg/kg): 3.99%
- TV (mm^3) d0 ([3]; 15 mg/kg): 100 ± 20 mm^3
- TV (mm^3) d21 ([3]; 15 mg/kg): 172 ± 51 mm^3
- inhibition of growth of tumor xenografts [3, 5]: can significantly inhibit the growth of tumor xenografts
- xenograft growth inhibition compared with CPT-11 [3, 5]: equivalent to that of CPT-11

Compound: CCc1c2c(nc3ccc(OC(=O)N4CCC(N5CCCCC5)CC4)cc13)-c1cc3c(c(=O)n1C2)COC(=O)[C@]3(O)CC [CPT-11, Irinotecan]
- Body weight (g) At the beginning ([2]; 15 mg/kg): 18.2 g
- Body weight (g) At the end ([2]; 15 mg/kg): 18.7 g
- RTV ([2]; 15 mg/kg): 0.5 ± 0.5
- TV (mm^3) d0 ([2]; 15 mg/kg): 121 ± 34 mm^3
- TV (mm^3) d20 ([2]; 15 mg/kg): 55 ± 39 mm^3
- Body weight (g) At the end ([3]; 15 mg/kg): 18.3 g
- RTV ([3]; 15 mg/kg): 1.9 ± 1.1
- TV (mm^3) d0 ([3]; 15 mg/kg): 101 ± 60 mm^3
- TV (mm^3) d21 ([3]; 15 mg/kg): 171 ± 86 mm^3

- IC50 (HCT-116): 12.9 ± 5.4 nM
- IC50 (HL-60): 6.7 ± 1.26 nM
- IC50 (SMMC-7721): 379 ± 66.4 nM
- IC50 (MDA-MB-468): 95.6 ± 36.9 nM
- IC50 (MKN-28): 303 ± 56 nM
- IC50 (SGC-7901): 465 ± 75.3 nM
- IC50 (HCT-15): 6.13 ± 4.07 nM
- IC50 (HO-8910): 1120 ± 171 nM
- IC50 (BEL-7402; BEL-7402): 136 ± 34.7 nM
- IC50 (MCF-7; read-out: IC50(mean ± SD)): 73 ± 15.6 nM
- IC50 (NCI-H23): 234 ± 116 nM
- IC50 (MDA-MB-435): 3.42 ± 1.53 nM
- IC50 (A549): 5.9 ± 1.61 nM
- IC50 [1]: 218 nM
Compound: CCc1c2c(nc3ccc(O)cc13)-c1cc3c(c(=O)n1C2)COC(=O)[C@]3(O)CC [SN38]

- IC50 (HCT-116; Homo sapiens): 38 ± 2.19 nM
- IC50 (HL-60; Homo sapiens): 23.3 ± 1.32 nM
- IC50 (SMMC-7721; Homo sapiens): 1380 ± 172 nM
- IC50 (MDA-MB-468; Homo sapiens): 176 ± 97.5 nM
- IC50 (MKN-28; Homo sapiens): 412 ± 188 nM
- IC50 (SGC-7901; Homo sapiens): 489 ± 96.5 nM
- IC50 (HCT-15; Homo sapiens): 14.4 ± 4.41 nM
- IC50 (HO-8910): 1380 ± 44.4 nM
- IC50 (BEL-7402; Homo sapiens, Bel-7402): 420 ± 79.7 nM
- IC50 (MCF-7; Homo sapiens, MCF7, read-out: IC50(mean ± SD)): 387 ± 45.6 nM
- IC50 (NCI-H23; Homo sapiens): 122 ± 36.3 nM
- IC50 (MDA-MB-435; Homo sapiens): 49.7 ± 6.05 nM
- IC50 (A549; Homo sapiens): 28.1 ± 6.8 nM
- IC50 [1]: 379 nM
Compound: CC[C@@]1(O)C(=O)OCc2c1cc1n(c2=O)Cc2cc3c(CN(C)C)c(O)ccc3nc2-1 [TPT, Topotecan]

- IC50 (K562 cell line): 493 nM
- IC50 ([4]; Homo sapiens, K562/A02 cells): 69100 nM
Compound: COc1cccc2c1C(=O)c1c(O)c3c(c(O)c1C2=O)C[C@@](O)(C(=O)CO)C[C@@H]3O[C@H]1C[C@H](N)[C@H](O)[C@H](C)O1 [adriamycin]
- Resistance Factor (RF) ([4]; K562/A02 versus K562): 140.24
